Earlier results as cited in patent US20070071683A1, “Ultrasonic concentration of carrier particles” (The Regents of the University of California, priority 2005, published 2007).

System: tumor
Details: paclitaxel alone

## CC(=O)O[C@H]1C(=O)[C@@]2(C)[C@H]([C@H](OC(=O)c3ccccc3)[C@]3(O)C[C@H](OC(=O)[C@H](O)[C@@H](NC(=O)c4ccccc4)c4ccccc4)C(C)=C1C3(C)C)[C@]1(OC(C)=O)CO[C@@H]1C[C@@H]2O [paclitaxel]
  effect on tumor volume: did not affect tumor volume
